Assay results taken from PubChem BioAssay (NCI).
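These data come from cells grown in 96-well plates and exposed to compound for 48 hours at five concentrations. Abbreviation: GI50, concentration required for 50% inhibition of growth. TGI: concentration producing complete growth inhibition.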

Key:
Assay in all cases: NCI tumour cell line growth inhibition, 48 h
KM20L2 colon = system: KM20L2 colon
NCI-H23 lung = system: NCI-H23 lung
MALME-3M melanoma = system: MALME-3M melanoma
MOLT-4 leukemia = system: MOLT-4 leukemia
OVCAR-8 ovarian = system: OVCAR-8 ovarian
SK-MEL-5 melanoma = system: SK-MEL-5 melanoma
P388/ADR leukemia = system: P388/ADR leukemia
RPMI-8226 leukemia = system: RPMI-8226 leukemia
OVCAR-4 ovarian = system: OVCAR-4 ovarian
LOX IMVI melanoma = system: LOX IMVI melanoma
UACC-257 melanoma = system: UACC-257 melanoma
HCT-116 colon = system: HCT-116 colon
HL-60(TB) leukemia = system: HL-60(TB) leukemia
SF-295 CNS = system: SF-295 CNS
CCRF-CEM leukemia = system: CCRF-CEM leukemia
DLD-1 colon = system: DLD-1 colon
SF-539 CNS = system: SF-539 CNS
U251 CNS = system: U251 CNS
NCI/ADR-RES ovarian = system: NCI/ADR-RES ovarian
COLO 205 colon = system: COLO 205 colon
IGROV1 ovarian = system: IGROV1 ovarian
XF 498 CNS = system: XF 498 CNS
M19-MEL melanoma = system: M19-MEL melanoma
HOP-92 NSCLC = system: HOP-92 NSCLC
UO-31 renal = system: UO-31 renal
DMS 273 small cell lung = system: DMS 273 small cell lung
SK-MEL-2 melanoma = system: SK-MEL-2 melanoma
SN12C renal = system: SN12C renal
KM12 colon = system: KM12 colon
HT29 colon = system: HT29 colon
HOP-18 NSCLC = system: HOP-18 NSCLC
SNB-78 CNS = system: SNB-78 CNS
UACC-62 melanoma = system: UACC-62 melanoma
A549 NSCLC = system: A549 NSCLC
HCT-15 colon = system: HCT-15 colon
SK-MEL-28 melanoma = system: SK-MEL-28 melanoma
OVCAR-3 ovarian = system: OVCAR-3 ovarian
SNB-19 CNS = system: SNB-19 CNS
SK-OV-3 ovarian = system: SK-OV-3 ovarian
HOP-62 NSCLC = system: HOP-62 NSCLC
HCC-2998 colon = system: HCC-2998 colon
RXF 393 renal = system: RXF 393 renal
K-562 leukemia = system: K-562 leukemia
P388 leukemia = system: P388 leukemia
DMS 114 small cell lung = system: DMS 114 small cell lung
SF-268 CNS = system: SF-268 CNS
SNB-75 CNS = system: SNB-75 CNS
OVCAR-5 ovarian = system: OVCAR-5 ovarian
SW-620 colon = system: SW-620 colon
EKVX NSCLC = system: EKVX NSCLC
NCI-H522 lung = system: NCI-H522 lung
MCF7 breast = system: MCF7 breast
NCI-H226 lung = system: NCI-H226 lung
CAKI-1 renal = system: CAKI-1 renal
NCI-H460 lung = system: NCI-H460 lung
SN12K1 renal = system: SN12K1 renal
A498 renal = system: A498 renal

CCN(CC)c1c(C)c(C(=O)OC)nn1-c1ccccc1
TGI (KM20L2 colon): > 100 µM
TGI (NCI-H23 lung): > 100 µM
TGI (MALME-3M melanoma): > 100 µM
TGI (MOLT-4 leukemia): > 100 µM
TGI (OVCAR-8 ovarian): > 100 µM
TGI (SK-MEL-5 melanoma): > 100 µM
TGI (P388/ADR leukemia): > 100 µM
TGI (RPMI-8226 leukemia): > 100 µM
TGI (OVCAR-4 ovarian): > 100 µM
TGI (LOX IMVI melanoma): > 100 µM
TGI (UACC-257 melanoma): > 100 µM
TGI (HCT-116 colon): > 100 µM
TGI (HL-60(TB) leukemia): > 100 µM
TGI (SF-295 CNS): > 100 µM
TGI (CCRF-CEM leukemia): > 100 µM
TGI (DLD-1 colon): > 100 µM
TGI (SF-539 CNS): > 100 µM
TGI (U251 CNS): > 100 µM
TGI (NCI/ADR-RES ovarian): > 100 µM
TGI (COLO 205 colon): > 100 µM
TGI (IGROV1 ovarian): > 100 µM
TGI (XF 498 CNS): > 100 µM
TGI (M19-MEL melanoma): > 100 µM
TGI (HOP-92 NSCLC): > 100 µM
TGI (UO-31 renal): > 100 µM
TGI (DMS 273 small cell lung): > 100 µM
TGI (SK-MEL-2 melanoma): > 100 µM
TGI (SN12C renal): > 100 µM
TGI (KM12 colon): > 100 µM
TGI (HT29 colon): > 100 µM
TGI (HOP-18 NSCLC): > 100 µM
TGI (SNB-78 CNS): > 100 µM
TGI (UACC-62 melanoma): > 100 µM
TGI (A549 NSCLC): > 100 µM
TGI (HCT-15 colon): > 100 µM
TGI (SK-MEL-28 melanoma): > 100 µM
TGI (OVCAR-3 ovarian): > 100 µM
TGI (SNB-19 CNS): > 100 µM
TGI (SK-OV-3 ovarian): > 100 µM
TGI (HOP-62 NSCLC): > 100 µM
TGI (HCC-2998 colon): > 100 µM
TGI (RXF 393 renal): > 100 µM
TGI (K-562 leukemia): > 100 µM
TGI (P388 leukemia): > 100 µM
TGI (DMS 114 small cell lung): > 100 µM
TGI (SF-268 CNS): > 100 µM
TGI (SNB-75 CNS): > 100 µM
TGI (OVCAR-5 ovarian): > 100 µM
TGI (SW-620 colon): > 100 µM
TGI (EKVX NSCLC): > 100 µM
TGI (NCI-H522 lung): > 100 µM
TGI (MCF7 breast): > 100 µM
TGI (NCI-H226 lung): > 100 µM
TGI (CAKI-1 renal): > 86.3 µM
TGI (NCI-H460 lung): > 100 µM
TGI (SN12K1 renal): > 100 µM
TGI (A498 renal): > 100 µM

COC(=O)C1C(O)C(C)C(O)C(C)(O)/C=C/C=C(C)C(=O)Nc2c(C)c(OC(C)=O)c3c(c2O)C(=O)C(C)=C2OCOC(=C23)C(C)=CC(C)(O)C(O)C(C)C1OC(C)=O (stereo not given)
TGI (KM20L2 colon): > 88.6 µM
TGI (NCI-H23 lung): 52.7 µM
GI50 (MALME-3M melanoma): 22.6 µM
TGI (MALME-3M melanoma): 43.8 µM
TGI (MOLT-4 leukemia): 54.8 µM
GI50 (OVCAR-8 ovarian): 42.9 µM
TGI (OVCAR-8 ovarian): 92.1 µM
TGI (SK-MEL-5 melanoma): > 78.5 µM
TGI (P388/ADR leukemia): > 83.1 µM
GI50 (RPMI-8226 leukemia): 27.1 µM
TGI (RPMI-8226 leukemia): 54.9 µM
TGI (OVCAR-4 ovarian): > 100 µM
TGI (LOX IMVI melanoma): 41.2 µM
GI50 (UACC-257 melanoma): 20.1 µM
TGI (UACC-257 melanoma): 44.8 µM
GI50 (HCT-116 colon): 18.1 µM
TGI (HCT-116 colon): 34.5 µM
TGI (HL-60(TB) leukemia): 49.8 µM
TGI (SF-295 CNS): > 100 µM
GI50 (CCRF-CEM leukemia): 28.1 µM
TGI (CCRF-CEM leukemia): 55.8 µM
TGI (DLD-1 colon): 43.3 µM
TGI (SF-539 CNS): 76.4 µM
TGI (U251 CNS): > 100 µM
TGI (NCI/ADR-RES ovarian): > 100 µM
TGI (COLO 205 colon): 39.3 µM
TGI (IGROV1 ovarian): 80.5 µM
TGI (M19-MEL melanoma): 31.8 µM
GI50 (HOP-92 NSCLC): 15.9 µM
TGI (HOP-92 NSCLC): 35.1 µM
TGI (UO-31 renal): > 100 µM
TGI (DMS 273 small cell lung): > 100 µM
TGI (SK-MEL-2 melanoma): 39.7 µM
TGI (SN12C renal): 47.9 µM
GI50 (KM12 colon): 19.2 µM
TGI (KM12 colon): 35.2 µM
TGI (HT29 colon): > 92.7 µM
TGI (HOP-18 NSCLC): > 100 µM
GI50 (SNB-78 CNS): 37.9 µM
TGI (SNB-78 CNS): 91.2 µM
TGI (UACC-62 melanoma): 47.7 µM
TGI (A549 NSCLC): > 100 µM
TGI (HCT-15 colon): 69.6 µM
GI50 (SK-MEL-28 melanoma): 33.4 µM
TGI (SK-MEL-28 melanoma): 59.7 µM
GI50 (OVCAR-3 ovarian): 22.4 µM
TGI (OVCAR-3 ovarian): 63.1 µM
TGI (SNB-19 CNS): > 100 µM
TGI (SK-OV-3 ovarian): > 100 µM
TGI (HOP-62 NSCLC): > 100 µM
TGI (HCC-2998 colon): 85.5 µM
TGI (RXF 393 renal): 33.4 µM
GI50 (K-562 leukemia): 30.7 µM
TGI (K-562 leukemia): 60.5 µM
TGI (P388 leukemia): 52.2 µM
TGI (DMS 114 small cell lung): 25.4 µM
GI50 (SF-268 CNS): 39.9 µM
TGI (SF-268 CNS): 75.8 µM
TGI (SNB-75 CNS): > 63.1 µM
TGI (OVCAR-5 ovarian): > 100 µM
GI50 (SW-620 colon): 31.6 µM
TGI (SW-620 colon): 63.3 µM
TGI (EKVX NSCLC): 67.8 µM
TGI (NCI-H522 lung): 56 µM
TGI (MCF7 breast): 34.5 µM
GI50 (NCI-H226 lung): 50.7 µM
TGI (NCI-H226 lung): > 100 µM
GI50 (CAKI-1 renal): 37.1 µM
TGI (CAKI-1 renal): 86.9 µM
GI50 (NCI-H460 lung): 19.9 µM
TGI (NCI-H460 lung): 38.6 µM
TGI (SN12K1 renal): 60.8 µM
TGI (A498 renal): > 56.2 µM

Cc1ccc2cc3cccc(C(=O)NCCN(C)C)c3nc2c1
TGI (KM20L2 colon): 3.08 µM
TGI (NCI-H23 lung): 3.4 µM
TGI (MALME-3M melanoma): 2.49 µM
TGI (OVCAR-8 ovarian): 6.45 µM
TGI (SK-MEL-5 melanoma): 2.66 µM
TGI (P388/ADR leukemia): 1.46 µM
TGI (RPMI-8226 leukemia): 7.42 µM
TGI (OVCAR-4 ovarian): 6.11 µM
TGI (LOX IMVI melanoma): 6.08 µM
TGI (UACC-257 melanoma): 2.74 µM
TGI (HCT-116 colon): 6.23 µM
TGI (HL-60(TB) leukemia): 2.49 µM
TGI (SF-295 CNS): 3.91 µM
TGI (CCRF-CEM leukemia): 5.54 µM
TGI (DLD-1 colon): 8.36 µM
TGI (SF-539 CNS): 3.57 µM
TGI (U251 CNS): 9.2 µM
TGI (NCI/ADR-RES ovarian): 5.07 µM
TGI (COLO 205 colon): 2.51 µM
TGI (IGROV1 ovarian): 9.09 µM
TGI (XF 498 CNS): 3.68 µM
TGI (M19-MEL melanoma): 3.01 µM
TGI (HOP-92 NSCLC): 2.75 µM
TGI (UO-31 renal): 3.19 µM
TGI (DMS 273 small cell lung): 2.8 µM
TGI (SK-MEL-2 melanoma): 3.55 µM
TGI (SN12C renal): 6.39 µM
TGI (KM12 colon): 10 µM
TGI (HT29 colon): 2.67 µM
TGI (HOP-18 NSCLC): 7.36 µM
TGI (SNB-78 CNS): 7.78 µM
TGI (UACC-62 melanoma): 3.16 µM
TGI (A549 NSCLC): 5.05 µM
TGI (HCT-15 colon): 9.17 µM
TGI (SK-MEL-28 melanoma): 3.39 µM
TGI (OVCAR-3 ovarian): 5.67 µM
TGI (SNB-19 CNS): 8.1 µM
TGI (SK-OV-3 ovarian): 7.87 µM
TGI (HOP-62 NSCLC): 6.17 µM
TGI (HCC-2998 colon): 3.04 µM
TGI (RXF 393 renal): 2.73 µM
TGI (K-562 leukemia): > 31.3 µM
TGI (P388 leukemia): 1.26 µM
TGI (DMS 114 small cell lung): 2.58 µM
TGI (SF-268 CNS): 4.03 µM
TGI (SNB-75 CNS): 4.75 µM
TGI (OVCAR-5 ovarian): 4.28 µM
TGI (SW-620 colon): 6.46 µM
TGI (EKVX NSCLC): 3.44 µM
TGI (MCF7 breast): 5.19 µM
TGI (NCI-H226 lung): 4.16 µM
TGI (CAKI-1 renal): 10.8 µM
TGI (NCI-H460 lung): 1.94 µM
TGI (SN12K1 renal): 5.59 µM
TGI (A498 renal): 2.37 µM
